Assay results from ChEMBL document CHEMBL1158770, “Cladionol A, a polyketide glycoside from marine-derived fungus Gliocladium species” (J Nat Prod, 2005).
≈ marks a conversion by molar mass, not a printed value.

Columns and labels:
L1210 = test: Cytotoxicity against mouse L1210 cells; type: functional, cell-based
KB = test: Cytotoxicity against human KB cells; type: functional, cell-based

SMILES: CCC(C)CC(C)CC(C)C(O[C@@H]1O[C@H](C(=O)OC)[C@@H](O)[C@H](O)[C@@H]1O)C(C)/C=C(\C)C(O)C(C)/C=C(\C)C(O)C(C)/C=C(\C)[C@H](O)[C@@H](C)C(=O)OC[C@H](O)[C@@H](O)[C@@H](O)CO (some centres not stated) [CLADIONOL A]
- IC50 (L1210): 5 µg/mL (≈ 5.79 µM)
- IC50 (KB): 7 µg/mL (≈ 8.11 µM)
